PMC6324813, “Biological evaluation of isoflavonoids from Genista halacsyi using estrogen-target cells: Activities of glucosides compared to aglycones” (PLoS ONE, 2019)

Assays:
[1] = tested on: Ishikawa cells; assay: Induction of AlkP expression in Ishikawa cells; type: cell-based, human; conditions: for Induction of Alkaline Phosphatase Expression (Ishikawa cells) AUC (%): % of AUC of luciferase response of archetypal 3, 4, 5 or 8 up to 0.3, 10, 1.0 and 3.0 μM; for EC (25% of 0.1 nM E2 effect) / activation at 1 µM / EC50: Homo sapiens, Ishikawa; for EC (25% of 0.1 nM E2 effect) / activation at 1 µM: 72 h; for EC (25% of 0.1 nM E2 effect): concentration required to achieve 25% of the effect of 0.1 nM E2, read-out: Induction of Alkaline Phosphatase Expression (Ishikawa cells) EC25E2; for activation at 1 µM: read-out: Induction of AlkP expression (Ishikawa cells) Agonism at 1μΜ (% of 0.1nM E2); for EC50: concentration required to achieve 50% of the effect of 0.1 nM E2, read-out: Induction of Alkaline Phosphatase Expression (Ishikawa cells) EC50E2; for AlkP-inducing agonist effect compared to the effect of 0.1 nM estradiol: isoflavonoids 1 μM, statistically significant effects
Method in brief: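 Ishikawa cells at 12,000 per well were grown in phenol-red-free MEM with 1 μg/mL insulin and 5% DCC-FBS, as an estrogenic read-out. AlkP activity versus isoflavonoid concentration was curve-fitted and AUC derived. AUC was expressed as % of the luciferase-response AUC of the matching archetypal isoflavone.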

[2] = tested on: MC3T3-E1 cells; assay: Differentiation of MC3T3-E1 cells to osteoblasts, AlkP activity; type: cell-based, mouse; conditions: DF + E2 1 nM or compound 1 μM; 6 days; DF plus vehicle = 100
Description: (§1) Differentiation of MC3T3-E1 cells was carried out in 96-well plates using 3,300 cells per well and was assessed via induction of, i) Alkaline Phosphatase (AlkP) activity after 6 days of treatment and, ii) mineralization of extracellular matrix after 21 days of treatment. Briefly, 24 h after plating, the cells were incubated with test compounds or vehicle i.e. the compound diluent (0.1% DMSO) and then exposed for 6 days to differentiation medium in presence or absence of differentiation factors (cf. Cell culture) with a change to fresh compounds and medium in 3 days. AlkP activity was assessed at 405 nm in a Safire II microplate reader using as substrate p-nitrophenyl-phosphate (pNPP, Sigma-Aldrich) as already described. Mineralization of MC3T3 cells was assessed by staining with Alizarin red (Fluka). Cells were cultured and treated as described above for 21 days, with media and test compounds changed every 3 days, and calcium phosphate deposition was assayed as described by Gregory et al.. Briefly, the cells were washed twice with PBS and fixed with 70% ethanol for 15 min on ice. The cells were stained with Alizarin red solution (40 mM, pH 4.2) for 30 min at room temperature, washed twice with distilled water and once with PBS. The dye from the stained mineral deposits was extracted with 33% acetic acid and the absorbance was measured at 405 nm using a Safire II microplate reader (Tecan).

[3] = tested on: MC3T3-E1 cells; assay: Mineralization of MC3T3-E1 cells, Alizarin red staining; type: cell-based, mouse; conditions: DF + E2 1 nM or compound 1 μM; 21 days; DF plus vehicle = 100
Description: as §1, with “Differentiation of MC3T3-E1 cells to osteoblasts has been extensively used to screen for compounds that may promote bone formation. Differentiation” for “Differentiation”

[4] = tested on: RAW 264.7 cells; assay: Differentiation of RAW 264.7 cells to osteoclasts, TRAP activity; type: cell-based, mouse; conditions: RANKL 50 ng/ml + E2 1 nM or compound 1 μM; 3 days; DF plus vehicle = 100
Description: Clones of RAW 264.7 cells competent to differentiate to multinuclear osteoclasts upon activation with RANKL provide valuable information on the regulation of osteoclast differentiation. Differentiation-competent RAW cells (ATCC TIB-71) were seeded in 96-well plates at a density of 9,600 cells per well. The cells were plated in the presence of test compounds or compound diluent (0.1% DMSO) and, 4 h after plating, were exposed for 3 days to 50 ng/ml RANKL or to plain medium. Osteoclastic differentiation was assessed via induction of Tartrate-Resistant Acid Phosphatase (TRAP) activity. The cells were washed with PBS and incubated with 25μl lysis buffer (0.4 M NaCl, 25 mM Hepes pH 7.7, 1.5 mM MgCl2, 0.2 mM EDTA, 1% NP40) for 5 min on ice.

[5] = tested on: HT22 cells; assay: Glutamate toxicity (oxytosis) of HT22 neuronal cells (MTT); conditions: 1 nM estradiol or 1 μM compound; for viability of HT22 cells under normal growth conditions compared to vehicle-treated cells: no glutamate; for viability of glutamate-treated HT22 cells (% of glutamate-free cells): 5 mM glutamate 24 h
Description: Glutamate-challenged HT22 cells suffer oxidative stress-induced cell death (oxytosis) within 24 h due to glutathione depletion and consequent massive accumulation of ROS [42]. The efficacy of test compounds to prevent oxytosis of HT22 cells was assessed as already described. Briefly, HT22 cells were plated in 96-well flat bottom plates at a density of 4,000 cells per well in 100 μl of DMEM (low glucose) containing 2% FBS. 24 h after plating, the cells were treated with test compounds or compound diluent (0.1% DMSO) and then challenged with 5 mM glutamate for 24 h. […] Non-challenged cells served to assess test compound effects on cell viability, whereas challenged cells served to assess the neuroprotective activity of test compounds.

[6] = tested on: TNFα mRNA; assay: LPS-induced TNFα mRNA expression in RAW 264.7 cells (RT-qPCR); type: cell-based, mouse; conditions: for reduction of LPS induction of TNFα mRNA expression: 3 μM, LPS 100 ng/ml 1 h; for suppression of LPS-stimulated TNFα mRNA expression: pre-incubated with 3 μM isoflavonoid prior to the stimulation
Description: To assess TNFα mRNA expression, RAW 264.7 cells were plated in 6-well plates in alpha-MEM medium supplemented with 10% DCC-FBS, at a density of 300,000 cells per well, maintained in culture for 72 h and then exposed to vehicle (0.3% DMSO) or 3 μΜ test compound for 20 min or 24 h prior to stimulation with 100 ng/ml lipopolysaccharide (Sigma L4391) for 1 h. Extraction of total RNA, reverse transcription (RT) and quantitative PCR (qPCR) analysis of mRNA expression levels were performed as previously described. Relative gene expression levels were calculated by the comparative Ct method using the formula 2^(-ΔCt). Tumor necrosis factor alpha (TNFα) mRNA levels were normalized to the respective levels of […] (GAPDH). Test compound effects on the relative number of viable cells were assessed using crystal violet and a Safire II microplate reader (Tecan) as previously described. […] The following primers were used: […]

Row | SMILES | Induction of Alkaline Phosphatase Expression (Ishikawa cells) AUC (%) [1] [%] | Ratio of AUC (AlkP / Lucif) ([1]; AUCAlkP / AUCluciferase) | EC (25% of 0.1 nM E2 effect) [1] [µM] | activation at 1 µM [1] [%] | EC50 [1] [nM] | AlkP-inducing agonist effect compared to the effect of 0.1 nM estradiol [1] | Differentiation of MC3T3-E1 cells, AlkP expression (%) [2] [%] | Differentiation of MC3T3-E1 cells, Alizarin red staining (%) [3] [%] | Differentiation of RAW 267.4 cells, TRAP expression (%) [4] [%] | viability of HT22 cells under normal growth conditions compared to vehicle-treated cells [5] | viability of glutamate-treated HT22 cells (% of glutamate-free cells) [5] [%] | reduction of LPS induction of TNFα mRNA expression ([6]; pre-treatment 20 min) [%] | reduction of LPS induction of TNFα mRNA expression ([6]; pre-treatment 24 h) [%] | suppression of LPS-stimulated TNFα mRNA expression [6]
1 | O=c1c(-c2ccc(OC3O[C@H](CO)[C@@H](O)[C@H](O)[C@H]3O)cc2)coc2cc(OC3O[C@H](CO)[C@@H](O)[C@H](O)[C@H]3O)cc(O)c12 (some centres unmarked) [Compound 11, 7,4΄-di-O-glucopyranosylgenistein] | 66±5 | 0.88±0.06 | 0.09 ± 0.01 | 105 ± 9 | 160 ± 20 | very similar to estradiol | 120±6 | 120±5 | 112±9 | not different | ≤ 40 | 30 | 29 | ~ 30%
2 | O=c1c(-c2ccc(O)cc2)coc2cc(O[C@@H]3O[C@H](CO)[C@@H](O)[C@H](O)[C@H]3O)cc(O)c12 [Compound 12, 7-O-β-D-glucopyranosyl-genistein] | 110±10 |  | 0.05 ± 0.01 | 101 ± 5 | 70 ± 10 | very similar to estradiol | 125±8 | 137±14 | 110±5 | not different | ≤ 40 |  | 20 | marginally effective
